Measured values from paper PMC10403511, “DNA-encoded chemical libraries yield non-covalent and non-peptidic SARS-CoV-2 main protease inhibitors” (Communications Chemistry, 2023).
Where two headings read alike, the source gives them in different places.

Key:
[1] = type: in vitro ADME, human; details: 10 μM
Experimental: (§1) At time points of 0, 30, 60, and 120 min, 15 μL of the samples were taken out, and the reactions were terminated by adding 75 μL of ice-cold methanol. The reaction mixtures were then vortexed for 30 s and centrifuged at 15,000 rcf for 15 min. […] The percentage of test compound remaining at the individual time points was normalized by the 0-min.
(§2) 10 µM in duplicate (n=2) at 37 °C. The reactions were terminated at time points of 0, 30, 60 and 120 min by adding ice-cold methanol. Following centrifugation, the supernatant was analyzed using UHPLC-Q E xa ct ive Orbitrap MS. The percentage of test compound remaining at the individual time points relative to the 0 min sample was determined S12

[2] = system: HepG2 cells; test: cells; details: Homo sapiens, HepG2, 24 h, read-out: IC50 (HepG2 cell viability)
[3] = system: HepG2 cells
[4] = in vivo; details: 50 mg/kg
Experimental: The whole blood samples were centrifuged at rcf 2000 for 5 min for the plasma separation of plasma. The plasma samples were stored at −80 °C before analysis. All the samples were analyzed with a Q Exactive orbitrap MS coupled with UHPLC (Thermo Fisher Scientific, San Jose, CA). LC-Q Exactive MS was operated in the same parameters used in the cell uptake assay above. The concentration of these compounds in plasma was quantified using individual calibration curves.
PK parameters such as half-time (T1/2), area under the plasma concentration–time curve during the period of observation (AUC0–t), area under the plasma concentration–time curve from zero to infinity (AUC0–∞), clearance normalized by the bioavailability (CL/F), and the mean residence time (MRT) were calculated by WinNonlin software (Certara, Princeton, NJ) by noncompartmental analysis. The plasma concentration–time curves were plotted in Prism 7 (GraphPad, San Diego, CA) as mean ± S.D.
Mouse PK of CDD compounds, 50 mg/kg
samples we re collected at 0, 5, 10, 15, 30 m in , 1, 2, 4, 6 and 8 h af ter dosing. P la sm a samples we re separated, prepared and analyzed wit h LC-MS. The compound
± SD (n=4). Tmax, time to rea ch the m a ximum pla sma concentration. Cm ax, maximum p las m a concentration. T1/2, half-lif e . AUC, area under the cu rve . CL, clea ran ce . F,
bioavailability. M R T, mean residence time.

[5] = in vitro; details: human
[6] = biological target: T1, cathepsin B (Homo sapiens, UniProt P07858); test: Human protease off-target assay, commercial kit; type: biochemical; details: 10 µM compound
T1 construct: purchased BPS Bioscience 79590
Experimental: (§3) These assays were done exactly as we described earlier. In brief, commercial kits were used for all four human proteases as follows: Cathepsin B (BPS Bioscience, #79590), Renin (BPS Bioscience, #80211), Thrombin (Sigma-Aldrich, #MAK243), and MMP-1 (Biovision, #K794-100). All assays were run in kinetic mode and at RT, except MMP-1, which was run at 37 °C. Positive controls were used for all assays, i.e., E64 for Cathepsin B, Aliskiren for Renin, CDD-1472 for Thrombin, and GM 6001 for MMP-1. Activities were obtained from linear initial progress curves, and fractional activities were calculated from reactions with no inhibitors[17],[19],[34].
(§4) Supplementary Figure 4. Potential off-target inhibition of major proteases, i.e. thrombin (a serine protease), cathepsin B (a cysteine protease like Mpro), renin (an
(§5) control inhibitors as indicated. S9 […]

[7] = biological target: T2, renin (Homo sapiens, UniProt P00797); test: Human protease off-target assay, commercial kit; type: biochemical; details: 11.1 µM compound
T2 construct: purchased BPS Bioscience 80211
T2 sequence (P00797 67-406): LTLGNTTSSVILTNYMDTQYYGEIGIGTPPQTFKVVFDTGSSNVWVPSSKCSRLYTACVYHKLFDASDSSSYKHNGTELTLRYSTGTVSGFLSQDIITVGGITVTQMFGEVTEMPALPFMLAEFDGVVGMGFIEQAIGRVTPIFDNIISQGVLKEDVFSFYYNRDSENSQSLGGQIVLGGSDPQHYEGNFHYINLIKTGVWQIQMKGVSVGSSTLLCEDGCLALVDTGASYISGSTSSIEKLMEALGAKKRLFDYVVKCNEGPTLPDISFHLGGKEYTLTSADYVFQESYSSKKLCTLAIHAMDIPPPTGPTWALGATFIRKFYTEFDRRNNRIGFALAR
Experimental: as §3, §4, §5

[8] = biological target: T3, thrombin (Homo sapiens, UniProt P00734); test: Human protease off-target assay, commercial kit; type: biochemical; details: 10 µM compound
T3 construct: purchased Sigma-Aldrich MAK243
Experimental: as §3, §4, §5

[9] = biological target: T4, matrix metallopeptidase-1 (MMP-1) (Homo sapiens, UniProt P03956); test: Human protease off-target assay, commercial kit; type: biochemical; details: 10 µM compound, 37 °C
T4 construct: purchased Biovision K794-100
T4 sequence (P03956 100-469): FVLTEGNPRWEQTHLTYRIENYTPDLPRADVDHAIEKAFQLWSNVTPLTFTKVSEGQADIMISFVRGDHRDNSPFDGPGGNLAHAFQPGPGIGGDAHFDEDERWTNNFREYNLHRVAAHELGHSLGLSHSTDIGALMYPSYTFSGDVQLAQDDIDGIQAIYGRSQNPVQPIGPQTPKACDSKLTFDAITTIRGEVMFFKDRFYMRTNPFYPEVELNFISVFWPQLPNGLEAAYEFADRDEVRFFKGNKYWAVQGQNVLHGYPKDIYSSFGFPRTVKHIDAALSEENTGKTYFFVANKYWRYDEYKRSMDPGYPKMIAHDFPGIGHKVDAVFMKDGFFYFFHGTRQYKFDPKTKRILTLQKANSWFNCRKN
Experimental: as §3, §4, §5

[10] = type: in vitro ADME, mouse; details: 10 μM
Experimental: as §1, §2

[11] = system: M^pro variant ΔP168/A173V; details: previously shown; cited from earlier work
[12] = system: M^pro variant A173V; details: previously shown; cited from earlier work
[13] = system: HepG2 cells; type: in vitro ADME; details: 10 μM, 2 h
Experimental: The plate was incubated at 37 °C for another 2 h, and the medium in the plate was then decanted. The cells were rinsed with 1 mL of 1× DPBS three times, trypsinized at 37 °C for 3.5 min, centrifuged, and the cell pellets from each well were reconstituted in 500 μL of MeOH/H2O (vol/vol 1/1). […] The mixtures were centrifuged at 15,000 rcf for 15 min. Three microliters of the supernatant were injected into UHPLC-Q Exactive Orbitrap MS (Thermo Fisher Scientific) equipped with a 50 × 4.6-mm column (XDB C-18; Agilent Technologies) for analysis. The column temperature was set at 40 °C. The mobile phase system was (A) water (containing 0.1% formic acid) and (B) acetonitrile (containing 0.1% formic acid), with a flow rate of 0.3 mL/min. The gradient elution program was set as follows: 0 to 0.25 min, 40% B; 0.25 to 1.5 min, 40 to 98% B; 1.5 to 3.5 min, 98% B; 3.5 to 3.8 min, 98 to 40% B; 3.8 to 5 min, 40% B. Ultrapure nitrogen was used as the sheath (45 arbitrary units), auxiliary (10 arbitrary units), and sweep (1.0 arbitrary unit) gas. The capillary and auxiliary gas temperatures were 275 °C and 380 °C, respectively. The spray voltage was 3.75 kV. […]
were expressed as the intracellular concentrations (peak areas) of these compounds. […]
and homogenized. The intracellular concentrations were measured with UHPLC-Q E xa ct ive Orbitrap MS. ND stands for “not detected”.

CNC(=O)[C@H]1C[C@H](n2c(-c3cncc4ccccc34)nc3cccc(C(=O)N[C@@H](C)c4ccc5ccccc5c4)c32)C1 [CDD-1819]
compound remaining in plasma ([1]; human, plasma, 2 h): 80% | IC50 [2]: > 100 µM | cytotoxicity [3]: no obvious cytotoxicity | MRT inf ([4]; male, mouse, in vivo, po): 1.42 ± 0.16 h | MRT last ([4]; male, mouse, in vivo, po): 1.31 ± 0.12 h | Tmax ([4]; male, mouse, in vivo, po): 0.33 ± 0.14 h | half-life ([4]; male, mouse, plasma, oral): 1.2 ± 0.1 h | CL/F ([4]; mice, per oral gavage (po.), n=4, mean ± SD): 7.26 ± 1.81 mg/ ( hr*µmol/L)/kg | viability at 24 h, 100 µM [5]: > 80% | inhibition of enzymatic activity [6]: None of these inhibitors blocked the enzymatic activity | inhibition of enzymatic activity [7]: None of these inhibitors blocked the enzymatic activity | inhibition of enzymatic activity [8]: None of these inhibitors blocked the enzymatic activity | inhibition of enzymatic activity [9]: None of these inhibitors blocked the enzymatic activity | compound remaining in plasma ([10]; mouse, plasma, 2 h): 80%

CC(C)(C)[C@H](NC(=O)C(F)(F)F)C(=O)N1C[C@H]2[C@@H]([C@H]1C(=O)N[C@H](C#N)C[C@@H]1CCNC1=O)C2(C)C [Nirmatrelvir, nirmatrelvir]
increase in Ki relative to WT [11]: 600 fold | increase in Ki relative to WT [12]: 50 fold

CCC[C@H](NC(=O)c1cccc2nc(-c3cncc4ccccc34)n([C@H]3C[C@H](C(=O)NC)C3)c12)c1ccc(C(F)(F)F)cc1 [CDD-1733]
compound remaining in plasma ([1]; human plasma, 37 °C, after 2 h incubation): 80% | IC50 [2]: > 100 µM | cytotoxicity ([3]; HepG2 cells): no obvious cytotoxicity | cell uptake (permeability) [13]: good permeability | inhibition of enzymatic activity [6]: None of these inhibitors blocked the enzymatic activity | inhibition of enzymatic activity [7]: None of these inhibitors blocked the enzymatic activity | inhibition of enzymatic activity [8]: None of these inhibitors blocked the enzymatic activity | inhibition of enzymatic activity [9]: None of these inhibitors blocked the enzymatic activity | compound remaining in plasma ([10]; mouse plasma, 37 °C, after 2 h incubation): 80%
